Patent US11884708B2, “Stapled peptide inhibitors of nemo as potential anti-inflammatory and anti-cancer drugs” (INSTITUT PASTEUR, priority 2015, dated 2024)
Where a SMILES comes first, the peptide text is derived from it. Bridges are numbered along the chain shown (N, C = ends). [ ]: non-standard residue; d: D form. The star is where a group is joined. BODIPYFLEthylmaleimide = Cc1cc(C)n2c1C=C1C=CC(CCC(=O)NCCN3C(=O)CC(*)C3=O)=[N+]1[B-]2(F)F; R8 = C=CCCCCCC[C@@](C)(N)C(=O)O; S5 = C=CCCC[C@](C)(N)C(=O)O

Assays:
[1] = CD spectroscopy, α-helical content; format: physicochemical; conditions: 50 μM peptide, phosphate buffer pH 7.0, UBI in TFE taken as 100%
[2] = Temperature-induced denaturation followed by CD; format: physicochemical; conditions: 30 μM or 300 μM, ΔCp ≈ 0; for Tm: thermal denaturation by CD; for ΔH: van't Hoff enthalpy change at Tm
Procedure: Temperature-induced denaturation experiments were performed by measuring the ellipticity at 222 nm from 1° C. to 95° C. in 1° C. steps, at a rate of 1° C./min, with a 2 nm bandwidth. Thermodynamic parameters including the melting temperature (Tm) and the van't Hoff enthalpy change at the melting temperature (ΔHm) were determined by fitting the denaturation curves with the Gibbs-Helmholtz equation as described elsewhere, [10]. The heat capacity change (ΔCp) was assumed to be 0 as judged by ΔHm which yielded similar values within 10% at two independent peptide concentrations (30 and 300 μM). The ellipticity was converted to differential extinction coefficient Δε (M^−1·cm^−1) per residue taking into account the peptide concentration determined by amino acid analysis.
Thermal stability of the peptides was also investigated by performing thermal denaturation profiles followed by CD (FIGS. 1 C and D and Table III). […] Indeed, the helicity of UBI-Aib (49%) is only 1.16-fold increased at 1° C. compared to UBI (42%), while its melting temperature (Tm=−8° C.) is 2.25 times higher than that of UBI (Tm=−18° C.).

CC2-LZ domain of NEMO = CC2-LZ domain of NEMO (Mus musculus, UniProt O88522); assay: Fluorescence anisotropy/polarization binding assay; conditions: for Binding affinity (FP) at 10 μM: fixed peptide concentration 10 μM
Chain of CC2-LZ domain of NEMO (O88522 242-343 limits assumed): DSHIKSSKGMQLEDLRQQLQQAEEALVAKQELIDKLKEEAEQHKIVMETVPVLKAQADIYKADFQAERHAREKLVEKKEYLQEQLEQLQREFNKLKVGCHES
Procedure: Measurements were performed on a Tecan infinite F500 equipped with polarizing filters and using excitation and emission wavelengths at 485 nm and 535 nm, respectively. Anisotropy data were calculated using the Magellan software version 6.5. Prior experiments, the mouse CC2-LZ was extensively dialyzed in binding buffer containing 20 mM HEPES pH 7.4, 100 mM NaCl, and 0.05% P20 detergent (v/v). All experiments were performed in a 384 well plate (vol 25 μl) at room temperature. The BODIPY®-labeled peptide concentrations were fixed at 0.1 or 10 μM whereas the CC2-LZ concentration varied from 0 to 100 μM. Reference calibrated at 22 mP, was based on the fluorescence of the peptide alone. Each experimental binding curve was determined from at least 10 independent concentration points. The G-factor was calculated as previously described in Agou et al. [7], with a value of 0.75, which was observed constant within 5% upon all titrations. For analysis, the blank value corresponding to the value of buffer alone, was subtracted from all titration data.
All NEMO peptides were conjugated to an extra N-terminal cysteine with the fluorophore BODIPY® or FITC to determine their binding affinity for the CC2-LZ domain of NEMO (also called NOA or UBAN) by fluorescence polarization. For each peptide titration, various concentration of the target ranging from 0 to 100 μM and a fixed concentration of peptide at 0.1 or 10 μM were used at 25° C. […] For these reasons, all further titration experiments were performed with a fixed peptide concentration of 0.1 μM unless otherwise indicated.

70Z3-C3 cells = assay: Cellular uptake of BODIPY-labeled peptides by FACS; format: cell-based; conditions: for reduction of the uptake of A-UBI-SAHND306-Q313 by endocytosis inhibitor: 30 min pre-incubation, nystatin 50 μg/ml, chlorpromazine 10 μg/ml, ethylisopropylamiloride 100 μM
Procedure: 2.2×10^5 cells in 100 μl of 70Z3-C3 were incubated with either 10 μM or with various doses of 10 μM, 5 μM and 1 μM of labeled-peptides at 37° C., 5% CO2. Similarly to fluorescence microscopy experiments, cells alone or incubated with BODIPY®-labeled BSA (ref) or BODIPY®-UBI devoid of the antennapedia cell penetrating sequence were used as negative control, whereas cells with BA-UBI [1] at 10 μM were used as positive control. After 2 h incubation, cells were washed 4 times with PBS at room temperature, and finally diluted 1:3 in PBS before subjected to FACS analysis. Along with the BODIPY® fluorophore the fluorescence intensity was recorded at 525±25 nm using the Gallios Flow cytometer (Beckman Coulter) to analyse each cells sample. Each internalization peptide was assessed by gating a population of 15,000 events and the data were analysed using Kaluza software version 1.2.
For determination of cellular uptake by flow cytometry, the BA-UBI-SAHND306-Q313 stapled peptide was first incubated with 2.2×10^5 70Z3-C3 cells in […] either at 4° C. or 37° C. for 2 h. Bodipy-labeled BSA, bodipy alone and bodipy-UBI were used as negative controls to verify the washing quality and efficient removal of any non-specific binding at the cell surface before FACS analysis. […] After 2 h of incubation, cells were washed four times with PBS at room temperature and diluted at 1:3 in PBS for FACS analysis. Samples were analyzed as previously described in the European patent (No: 15307137.8).

CC[C@H](C)[C@@H]1NC(=O)[C@H](CC(=O)O)NC(=O)[C@H](C)NC(=O)[C@H](CCC(N)=O)NC(=O)[C@](C)(NC(=O)[C@H](CCCCN)NC(=O)[C@H](CC(C)C)NC(=O)[C@H](CSC2CC(=O)N(CCNC(=O)CCC3=[N+]4C(=Cc5c(C)cc(C)n5[B-]4(F)F)C=C3)C2=O)NC(C)=O)CCCCCC/C=C\CCC[C@@](C)(C(=O)N[C@@H](CCCNC(=N)N)C(=O)N[C@@H](Cc2ccccc2)C(=O)N[C@@H](CCC(N)=O)C(=O)N[C@@H](C)C(=O)N[C@@H](CCC(=O)O)C(=O)N[C@@H](CCCNC(=N)N)C(=O)N[C@@H](Cc2c[nH]cn2)C(=O)N[C@@H](C)C(=O)N[C@@H](CCCNC(=N)N)C(=O)N[C@@H](CCC(=O)O)C(=O)N[C@@H](CCCCN)C(N)=O)NC(=O)[C@H](CCCCN)NC(=O)[C@H](Cc2ccc(O)cc2)NC1=O (stereo partly shown) [UBI-SAHN A303-A310 (A)] (Ac-C(BODIPYFLEthylmaleimide)LK[R8]QADIYK[S5]RFQAERHAREK-NH2; staple (Z) 4-11; N-terminus and C-terminus assumed)
α-helical content at 1° C. [1]: A: 63% -
α-helical content at 1° C. ([1]; listed as UBI-SAHNA303-A310 (A)): 63%
α-helical content at 1° C. ([1]; listed as UBI-SAHNA310-A310 (A)): 63%
ΔS [2]: A: −21 - cal. mol^−1.K^−1
Tm [2]: A: 5 - B: C°
ΔH [2]: A: −5950 - (cal. mol)^−1
Binding affinity (FP) at 10 μM (CC2-LZ domain of NEMO): weak binding

CC[C@H](C)[C@@H]1NC(=O)[C@H](CC(=O)O)NC(=O)[C@H](C)NC(=O)[C@H](CCC(N)=O)NC(=O)[C@](C)(NC(=O)[C@H](CCCCN)NC(=O)[C@H](CC(C)C)NC(=O)[C@H](CSC2CC(=O)N(CCNC(=O)CCC3=[N+]4C(=Cc5c(C)cc(C)n5[B-]4(F)F)C=C3)C2=O)NC(C)=O)CCCCCC/C=C/CCC[C@@](C)(C(=O)N[C@@H](CCCNC(=N)N)C(=O)N[C@@H](Cc2ccccc2)C(=O)N[C@@H](CCC(N)=O)C(=O)N[C@@H](C)C(=O)N[C@@H](CCC(=O)O)C(=O)N[C@@H](CCCNC(=N)N)C(=O)N[C@@H](Cc2c[nH]cn2)C(=O)N[C@@H](C)C(=O)N[C@@H](CCCNC(=N)N)C(=O)N[C@@H](CCC(=O)O)C(=O)N[C@@H](CCCCN)C(N)=O)NC(=O)[C@H](CCCCN)NC(=O)[C@H](Cc2ccc(O)cc2)NC1=O (stereo partly shown) [UBI-SAHN A303-A310 (B)] (Ac-C(BODIPYFLEthylmaleimide)LK[R8]QADIYK[S5]RFQAERHAREK-NH2; staple (E) 4-11; N-terminus and C-terminus assumed)
α-helical content at 1° C. [1]: B: 80%
α-helical content at 1° C. ([1]; listed as UBI-SAHNA303-A310 (B)): 80%
ΔS [2]: B: −21 cal. mol^−1.K^−1
Tm [2]: 33 ± 0.3 C°
ΔH [2]: B: −6510 (cal. mol)^−1
Binding affinity (FP) at 10 μM (CC2-LZ domain of NEMO): weak binding

CC[C@H](C)[C@@H]1NC(=O)[C@](C)(NC(=O)[C@H](C)NC(=O)[C@H](CCC(N)=O)NC(=O)[C@H](C)NC(=O)[C@H](CCCCN)NC(=O)[C@H](CC(C)C)NC(=O)[C@H](CSC2CC(=O)N(CCNC(=O)CCC3=[N+]4C(=Cc5c(C)cc(C)n5[B-]4(F)F)C=C3)C2=O)NC(C)=O)CCCCCCC=CCCC[C@@](C)(C(=O)N[C@@H](C)C(=O)N[C@@H](CCC(=O)OC)C(=O)N[C@@H](CCCNC(=N)N)C(=O)N[C@@H](Cc2c[nH]cn2)C(=O)N[C@@H](C)C(=O)N[C@@H](CCCNC(=N)N)C(=O)N[C@@H](CCC(=O)OC)C(=O)N[C@@H](CCCCN)C(N)=O)NC(=O)[C@H](Cc2ccccc2)NC(=O)[C@H](CCCNC(=N)N)NC(=O)[C@H](C)NC(=O)[C@H](CCCCN)NC(=O)[C@H](Cc2ccc(O)cc2)NC1=O (stereo partly shown) [UBI-SAHN D306-Q313 OMe, LKAQAX2IYKARFX5AX7RHARX9K] (Ac-C(BODIPYFLEthylmaleimide)LKAQA[R8]IYKARF[S5]AE(OMe)RHARE(OMe)K-NH2; staple 7-14)
Kd (CC2-LZ domain of NEMO; fixed peptide concentration 0.1 μM, read-out: Binding affinity (FP) at 0.1 μM): 24 ± 5 µM
cell internalization by FACS, in words (70Z3-C3 cells): became cell permeable

CC[C@H](C)[C@@H]1NC(=O)[C@](C)(NC(=O)[C@H](C)NC(=O)[C@H](CCC(N)=O)NC(=O)[C@H](C)NC(=O)[C@H](CCCCN)NC(=O)[C@H](CC(C)C)NC(=O)[C@H](CSC2CC(=O)N(CCNC(=O)CCC3=[N+]4C(=Cc5c(C)cc(C)n5[B-]4(F)F)C=C3)C2=O)NC(C)=O)CCCCCCC=CCCC[C@@](C)(C(=O)N[C@@H](C)C(=O)N[C@@H](CCC(N)=O)C(=O)N[C@@H](CCCNC(=N)N)C(=O)N[C@@H](Cc2c[nH]cn2)C(=O)N[C@@H](C)C(=O)N[C@@H](CCCNC(=N)N)C(=O)N[C@@H](CCC(N)=O)C(=O)N[C@@H](CCCCN)C(N)=O)NC(=O)[C@H](Cc2ccccc2)NC(=O)[C@H](CCCNC(=N)N)NC(=O)[C@H](C)NC(=O)[C@H](CCCCN)NC(=O)[C@H](Cc2ccc(O)cc2)NC1=O (stereo partly shown) [UBI-SAHN D306-Q313 Q/Q] (Ac-C(BODIPYFLEthylmaleimide)LKAQA[R8]IYKARF[S5]AQRHARQK-NH2; staple 7-14)
cell internalization by FACS, in words (70Z3-C3 cells): became cell permeable

CN(C)CCCN1c2ccccc2Sc2ccc(Cl)cc21 [chlorpromazine, reference compound]
inhibition at 10 µg/mL (70Z3-C3 cells; read-out: reduction of the uptake of A-UBI-SAHND306-Q313 by endocytosis inhibitor): 59%

CCN(c1nc(N)c(C(=O)N=C(N)N)nc1Cl)C(C)C [ethylisopropylamiloride, 5-(N-ethyl-N-isopropyl) amiloride, reference compound]
reduction of the uptake of A-UBI-SAHND306-Q313 by endocytosis inhibitor (70Z3-C3 cells): 26%

C[C@@H]1[C@H](O)[C@@H](C)/C=C/C=C/CC/C=C/C=C/C=C/C=C/C(O[C@H]2O[C@H](C)[C@@H](O)[C@H](N)[C@@H]2O)CC2O[C@](O)(CC(O)C(O)CCC(O)CC(O)CC(O)CC(=O)O[C@H]1C)CC(O)C2C(=O)O (stereo partly shown) [nystatin, reference compound]
reduction of the uptake of A-UBI-SAHND306-Q313 by endocytosis inhibitor (70Z3-C3 cells): 50%
